Assay results taken from US8329711B2, “Pyridone-substituted-dihydropyrazolopyrimidinone derivative” (MSD K.K., priority 2007, dated 2012).

What was measured:
[1] = target: T1, Wee1 kinase (Homo sapiens, UniProt P30291); experiment: Wee1 kinase-inhibitory effect (33P-ATP filter assay with GST-tagged Wee1); format: biochemical; details: purified GST-Wee1, Poly(Lys,Tyr) substrate, 10 μM ATP, 30° C. for 30 minutes; read-out: Weel-Inhibitory Effect (IC50)
T1 construct: made in house; host or cells: Sf9 insect cells (recombinant baculovirus)
T1 sequence (P30291 whole entry): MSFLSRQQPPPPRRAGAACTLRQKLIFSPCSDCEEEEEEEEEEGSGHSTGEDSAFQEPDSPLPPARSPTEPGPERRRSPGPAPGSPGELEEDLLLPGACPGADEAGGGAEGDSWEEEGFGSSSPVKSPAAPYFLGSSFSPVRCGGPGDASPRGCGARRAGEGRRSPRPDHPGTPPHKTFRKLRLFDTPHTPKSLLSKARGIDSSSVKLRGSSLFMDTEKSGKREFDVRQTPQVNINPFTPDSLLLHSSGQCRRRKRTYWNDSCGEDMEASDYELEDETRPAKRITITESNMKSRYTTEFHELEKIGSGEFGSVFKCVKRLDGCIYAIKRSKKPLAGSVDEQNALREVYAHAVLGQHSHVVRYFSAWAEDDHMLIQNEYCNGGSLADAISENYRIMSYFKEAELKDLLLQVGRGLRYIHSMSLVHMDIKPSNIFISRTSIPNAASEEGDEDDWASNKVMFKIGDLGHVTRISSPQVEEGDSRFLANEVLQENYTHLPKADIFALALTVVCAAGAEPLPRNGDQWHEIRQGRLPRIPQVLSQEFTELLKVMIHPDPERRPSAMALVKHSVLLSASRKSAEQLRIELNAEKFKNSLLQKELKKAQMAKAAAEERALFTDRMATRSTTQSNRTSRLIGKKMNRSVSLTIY
Excerpt: Pharmacological Test 1 (Wee1 Kinase-Inhibitory Effect)
(1) Purification of Wee1 Kinase:
A cDNA of Wee1 kinase with glutathion-S-transferase (GST) fused at the amino terminal thereof was inserted into a baculovirus expression vector to construct a recombinant baculovirus, with which cells of an insect cell line Sf9 were infected for high expression therein. The infected cells were collected and solubilized, and then the GST-tagged Wee1 kinase protein was adsorbed by a glutathion column, and eluted from the column with glutathion, and the active fraction was desalted in a desalting column to give a purified enzyme.
(2) Determination of Wee1 Kinase Activity:
In determination of the Wee1 kinase activity, a synthetic peptide, Poly(Lys,Tyr) Hydrobromide (Lys:Tyr (4:1)) bought from Sigma was used as the substrate.
The amount of the reaction liquid was 21.1 μL; and the composition of the reaction buffer was 50 mM Tris-HCl buffer (pH 7.4)/10 mM magnesium chloride/1 mM dithiothreitol. The purified Wee1 kinase, 2.5 μg of the substrate peptide, 10 μM of non-labeled adenosine triphosphate (ATP) and 1 μCi of [γ-^33P]-labeled ATP (2500 Ci/mmol or more) were added to it, and reacted at 30° C. for 30 minutes. Next, 10 μL of 350 mM phosphate buffer was added to the reaction system to stop the reaction. The substrate peptide was adsorbed by a P81 paper filter 96-well plate, then washed a few times with 130 mM phosphate buffer, and its radioactivity was counted with a liquid scintillation counter. The [γ-^33P]-labeled ATP was bought from Amersham Bioscience.
To add a test compound to the reaction system, the compound was diluted with dimethyl sulfoxide (DMSO) to prepare a series of dilutions. 1.1 μL of each dilution was added to the reaction system. As a control, 1.1 μL of DMSO was added to the reaction system.

[2] = system: Cdc2 (Cdk1) tyrosine 15 phosphorylation in NCI-H1299 cells; experiment: Cdc2 (Cdk1) tyrosine 15-phosphorylation-inhibitory effect in NCI-H1299 cells, camptothecin-treated (ELISA); format: cell-based; details: Homo sapiens, 200 nM camptothecin 16 hours, then test compound with nocodazole 8 hours, read-out: Cdc2-Y15 Phosphorylation-Inhibitory Effect (H1299, +camptothecin) (EC50)
Excerpt: Pharmacological Test 2 (Method of Determining Drug Potency with Cells (Cdc2 (Cdk1) Tyrosine 15-Phosphorylation-Inhibitory Effect))
Fetal bovine serum (FBS) was gotten from Morgate; media RPMI1640 and DMEM were from Invitrogen; camptothecin was from Sigma; gemcitabine was from Nippon Eli Lilly; nocodazole and protease inhibitor cocktail were from Sigma; rabbit anti-Cdc2 antibody and mouse anti-Cdc2 antibody were from Santa Cruz Biotechnology; rabbit anti-tyrosine 15-phosphorylated Cdc2 antibody and horseradish peroxidase-labeled anti-mouse IgG antibody were from Cell Signaling Technology; sure blue reserve TMB peroxidase substrate was from Kirkegaard and Perry Laboratories.
Human non-small cell lung cancer cells (NCI-H1299) and human colon cancer cells (WiDr) were gotten from American Type Culture Collection (ATCC).
In the method of using NCI-H1299 cells, the cells were suspended in a medium of 10% FBS-added RPMI1640, and the cell suspension was applied to a 96-well Nunclondelta-processed plastic plate (bought from Nunc), in an amount of 2000 cells/100 μL/well, in which the cells were incubated overnight in 5% CO2-95% air at 37° C. Camptothecin was dissolved in dimethyl sulfoxide (DMSO), and diluted with a medium of 10% FBS-added RPMI1640, and then this was applied to the plate on which the cells had been previously sowed, in an amount of 50 μL/well in such a manner that the final concentration of camptothecin could be 200 nM. Then, the cells were incubated for 16 hours at 37° C. in 5% CO2-95% air. A test compound was stepwise diluted with DMSO, then diluted with 4000 nM nocodazole-containing, 10% FBS-added RPMI1640, and applied to the plate on which the camptothecin-treated cells had been sowed, in an amount of 50 μL/well. […] Cdc2 was determined through ELISA as follows: A rabbit anti-Cdc2 antibody solution, which had been diluted 200-fold with 50 mM carbonate-bicarbonate buffer (pH 9.6), was applied to a 96-well maxisorpimmuno plate (bought from Nunc), in an amount of 50 μL/well, and statically kept overnight at 4° C. so as to fix the antibody on the plate. […]

Row | IC50 [1] [nM] | EC50 [2] [nM] | Compound
1 | 18 | 260 | C=CCn1c(=O)c2cnc(Nc3ccc(N4CCN(C)CC4)cc3)nc2n1-c1cccc(-n2cc(F)ccc2=O)n1 [Example 5, 6′-(2-allyl-6-{[4-(4-methylpiperazin-1-yl)phenyl]amino}-3-oxo-2,3-dihydro-1H-pyrazolo[3,4-d]pyrimidin-1-yl)-5-fluoro-2H-1,2′-bipyridin-2-one]
2 | 16 | 190 | C=CCn1c(=O)c2cnc(Nc3ccc(N4CCN(C)CC4)cc3)nc2n1-c1cccc(-n2ccccc2=O)n1 [Example 1, 6′-(2-allyl-6-{[4-(4-methylpiperazin-1-yl)phenyl]amino}-3-oxo-2,3-dihydro-1H-pyrazolo[3,4-d]pyrimidin-1-yl)-2H-1,2′-bipyridin-2-one]
3 | 17.9 | 180 | C=CCn1c(=O)c2cnc(Nc3ccc4c(c3)CN(C)CC4)nc2n1-c1cccc(-n2ccccc2=O)n1 [Example 30, 6′-{2-Allyl-6-[(2-methyl-1,2,3,4-tetrahydroisoquinolin-7-yl)amino]-3-oxo-2,3-dihydro-1H-pyrazolo[3,4-d]pyrimidin-1-yl}-2H-1,2′-bipyridin-2-one]
